# Measurements taken from patent US10793514B2, “Glutamine transport inhibitors and methods for treating cancer” (Vanderbilt University, priority 2016, dated 2020).
# Test system: human CRC cell lines
# Experiment: Follow-up viability screening (MultiTox Glo, sulforhodamine B)
# Format: cell-based
# Description: Viability was evaluated using a commercially available chemiluminescent reagents (CellTiter-Glo, Promega Corp. G7572; MultiTox Glo, Promega Corp. G9270) in 96-well plate format according to the manufacturers protocol. […] Subsequently, CellTiter-Glo reagent was added and the plates were read using a plate reader (BioTek Synergy 4) with standard settings. Each set of conditions was replicated at least three times, technically and biologically. Error is reported as standard deviation (SD). The sulforhodamine B assay was run analogously to the above assays as previously described^19.
smiles,measurement,setting,value
Cc1cccc(COc2ccccc2CN(CCC(N)C(=O)O)Cc2ccccc2OCc2cccc(C)c2)c1 (centres unmarked) [Compound V-9302],cellular viability and cell death,"25 μM, 48 h, three independent assays lacking ATP-dependency",reduced cellular viability and increased cell death
same,EC50,"four human CRC cell lines, 48 hrs, MultiTox Glo, read-out: EC50, cellular viability",9 to 15 µM
